Common to all, as to assay: drug sensitivity score (DSS) (DSS score); higher = more sensitive (stronger growth inhibition); extreme values may be limits of the assay
Assay [1] has as its system Ba/F3 P210-BCR-ABL1 RUNX1-/mut (mouse). Put shortly:
(§1)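 Mouse Ba/F3 cells carrying P210-BCR-ABL1, CRISPR/Cas9-edited at runx1 exon 4 or edited-control clones, were screened against a 528-compound library on pre-printed 384-well plates. Each compound ran at five concentrations spanning a 10,000-fold range, with 10,000 cells per well in RPMI with 10% FBS for 72 h at 37 °C and 5% CO2. CellTiter-Glo luminescence was scaled between vehicle and positive-control wells. A drug sensitivity score summarised each dose-response, averaged over two replicates.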

Assay [2] concerns Ba/F3 P210-BCR-ABL1 RUNX1wt/wt control (mouse). Put shortly:
as §1

Assay [3] deals with Ba/F3 P210-BCR-ABL1 RUNX1-/- (mouse). Put shortly: as §1

SMILES strings stand for the structures. ± gives the standard deviation of the averaged measurements.

For the compound `Cc1cc(Nc2cc(CN3CCOCC3)c3nc(C)c(Cc4ccc(Cl)cc4F)n3n2)n[nH]1` [Gandotinib], the drug sensitivity score in assay [1] stood at 4.9 ± 1.6; in assay [2], 2.35 ± 0.21; in assay [3], 4.8 ± 0.71.
Consider `O=C(O)c1ccc(CN2CCC(CN[C@@H]3C[C@H]3c3ccccc3)CC2)cc1`, for which the drug sensitivity score in assay [1] turned out to be 0; in assay [2], 0; in assay [3] it was 1.1 ± 1.1.
For `Cc1cc(Nc2ncc(Cl)c(Nc3ccccc3S(=O)(=O)C(C)C)n2)c(OC(C)C)cc1C1CCNCC1` [Ceritinib], the values for the drug sensitivity score in assay [1], in assay [2] and in assay [3] were 0.75 ± 1.1, 1.35 ± 0.78 and 0.8 ± 1.1, respectively.
On to `C=C1C[C@@H]2CC[C@@]34C[C@H]5O[C@H]6[C@@H](O3)[C@H]3O[C@H](CC[C@@H]3O[C@H]6[C@H]5O4)CC(=O)C[C@@H]3[C@@H](OC)[C@@H](C[C@H](O)CN)O[C@H]3C[C@H]3O[C@@H](CC[C@@H]1O2)C[C@@H](C)C3=C` [Eribulin], for which the drug sensitivity score in assay [1] worked out at 24.6 ± 0.85; in assay [2] it was 17.4 ± 0.14; in assay [3] it was 25.9 ± 1.2.
The corresponding values for `Cc1nn(C)c(COc2ccc(N3CCN(S(=O)(=O)N(C)C)CC3)cc2)c1-c1cccc2c(CCCOc3cccc4ccccc34)c(C(=O)O)n(CCN3CCOCC3)c12` are 6.6 ± 0.14, 6.65 ± 0.64 and 6.9 ± 0.85.
In the case of `Cc1ncc(Cl)cc1NCc1ccc(C(=O)N[C@@H](CC2CCCC2)C(=O)NC2CC2)s1`, the drug sensitivity score is 4 ± 4.5 in assay [1], 0 in assay [2] and 4.65 ± 0.21 in assay [3].
In the case of `COc1cc(N2CCN(C)CC2)ccc1Nc1nccc(-c2cn(C)c3cnccc23)n1` [AZ191], the values for the drug sensitivity score in assay [1], in assay [2] and in assay [3] were 7.45 ± 2.2, 2.5 ± 0.71 and 7.2 ± 1.4, respectively.
Consider `COc1cc(OC)cc(N(CCNC(C)C)c2ccc3ncc(-c4cnn(C)c4)nc3c2)c1` [Erdafitinib], for which the values for the drug sensitivity score in assay [1], in assay [2] and in assay [3] were 0, 0 and 1.5 ± 0.14, respectively.
On to `FC(F)(F)c1ccc(/C=C/c2nc(COc3ccc(CCCCn4ccnn4)cc3)co2)cc1` [Mubritinib], for which the drug sensitivity score in assay [1] stood at 5.55 ± 0.49; in assay [2] it was 5.95 ± 0.21; in assay [3] it was 5.1 ± 0.28.
Take `O=C(Nc1cc(Cl)cc2c1[nH]c1cnccc12)c1cccnc1` [PS-1145]: the drug sensitivity score in assay [1] was determined as 0.7 ± 0.99; in assay [2] it was 0; in assay [3], 0.4 ± 0.57.
For `CCN1CCN(Cc2ccc(Nc3ncc(F)c(-c4cc(F)c5nc(C)n(C(C)C)c5c4)n3)nc2)CC1` [Abemaciclib], the drug sensitivity score in assay [1] came out at 8.3 ± 6.1; in assay [2], 3.05 ± 0.071; in assay [3] it was 10.2 ± 4.7.
Consider `COC(=O)N[C@@H](C)CNc1nccc(-c2cn(C(C)C)nc2-c2cc(Cl)cc(NS(C)(=O)=O)c2F)n1` [Encorafenib], for which the drug sensitivity score in assay [1] was 2.15 ± 0.64; in assay [2], 0.05 ± 0.071; in assay [3] it was 1.35 ± 0.071.
Consider `O=C(O)CC[C@H]1CC[C@@](c2cc(F)ccc2F)(S(=O)(=O)c2ccc(Cl)cc2)CC1` [MK-0752], for which the drug sensitivity score in assay [1], in assay [2] and in assay [3] was 0 throughout.
For the compound `COc1cccc2c1C(=O)c1c(O)c3c(c(O)c1C2=O)C[C@@](O)(/C(CO)=N/NC(=O)CCCCCN1C(=O)C=CC1=O)C[C@@H]3O[C@H]1C[C@H](N)[C@H](O)[C@H](C)O1` [Aldoxorubicin], the drug sensitivity score in assay [1] worked out at 18.1 ± 0.35; in assay [2], 11.2 ± 0.35; in assay [3], 20.3 ± 0.71.
As to `COc1cc(Nc2ncc(F)c(Nc3ccc4c(n3)NC(=O)C(C)(C)O4)n2)cc(OC)c1OC` [Tamatinib], the drug sensitivity score in assay [1] came to 4.15 ± 0.071; in assay [2], 5.8 ± 0.28; in assay [3], 7.15 ± 0.78.
Taken in the same sequence, the figures for `CCCc1cc(C)[nH]c(=O)c1CNC(=O)c1cc(-c2ccnc(N3CCN(C)CC3)c2)cc2c1cnn2C(C)C` [GSK343] were 1.05 ± 1.5, 0 and 0.75 ± 0.78.
For the compound `O=C1Cc2cc(C(=O)NC3C[C@H]4CC[C@@H](C3)N4S(=O)(=O)CC3CCN(CCCC(F)(F)F)CC3)c(Cl)cc2N1` (some centres undefined), the drug sensitivity score worked out at 0.05 ± 0.071 in assay [1], 1.35 ± 1.9 in assay [2] and 0 in assay [3].
`C[C@@H](Nc1cc(F)cc(F)c1)c1cc(C(=O)N(C)C)cc2c(=O)cc(N3CCOCC3)oc12` [AZD-8186]: the drug sensitivity score in assay [1] is 0.5 ± 0.71; in assay [2], 0; in assay [3] it was 0.
Consider `Cc1ccc(C(=O)Nc2ccc(CN3CCN(C)CC3)c(C(F)(F)F)c2)cc1C#Cc1cnc2cccnn12` [Ponatinib], for which the drug sensitivity score in assay [1] is 31.6 ± 0.28; in assay [2], 30.2 ± 0.57; in assay [3], 36.2 ± 2.4.
Taken in the same sequence, the figures for `Nc1cccc2c1C(=O)N(C1CCC(=O)NC1=O)C2=O` (centres undefined) [Pomalidomide] were 0, 0 and 0.
On to `COc1cc2nccc(Oc3ccc(NC(=O)C4(C(=O)Nc5ccc(F)cc5)CC4)cc3)c2cc1OC` [Cabozantinib], for which the values for the drug sensitivity score in assay [1], in assay [2] and in assay [3] were 1.8 ± 1.6, 0 and 4.8 ± 0.85, respectively.
In the case of `Cc1cccc(-c2[nH]c(CNc3ccccc3F)nc2-c2ccc3ncnn3c2)n1` [TEW-7197], the drug sensitivity score in assay [1] was 0; in assay [2], 0; in assay [3], 2.35 ± 3.3.
For `CC[C@H](CC#N)OC(=O)N[C@@H](C)c1cccc(NC(=O)Nc2ccc(-c3cnco3)c(OC)c2)c1` [AVN944], the drug sensitivity score in assay [1] was 24.95 ± 0.21; in assay [2] it was 21.7 ± 1.6; in assay [3], 25.9 ± 0.42.
In the case of `N#Cc1ccc(COC[C@H]2O[C@@H](n3c(NCc4ccc(Cl)c(Cl)c4)nc4c(N)ncnc43)[C@H](O)[C@@H]2O)cc1`, the drug sensitivity score in assay [1] worked out at 11.2 ± 4; in assay [2], 3.55 ± 0.071; in assay [3], 9.1 ± 1.8.
For `O[C@H]1CC[C@H](Nc2ncc3nc(Nc4c(F)cc(F)cc4F)n([C@H]4CCOC4)c3n2)CC1` [Tanzisertib], the drug sensitivity score in assay [1] was found to be 1 ± 1.4; in assay [2], 0; in assay [3], 1.55 ± 0.78.
On to `Cc1c(-c2c(-c3ccc(F)o3)sc3ncnc(O[C@H](Cc4ccccc4OCc4ccnn4CC(F)(F)F)C(=O)O)c23)ccc(OCCN2CCN(C)CC2)c1Cl`, for which the drug sensitivity score in assay [1] came to 3.45 ± 4.9; in assay [2], 0; in assay [3], 1.7 ± 2.4.
For the compound `CO[C@H]1C[C@@H]2CC[C@@H](C)[C@@](O)(O2)C(=O)C(=O)N2CCCC[C@H]2C(=O)O[C@H]([C@H](C)C[C@@H]2CC[C@@H](O)[C@H](OC)C2)CC(=O)[C@H](C)/C=C(\C)[C@@H](O)[C@@H](OC)C(=O)[C@H](C)C[C@H](C)/C=C/C=C/C=C/1C` [Sirolimus], the drug sensitivity score in assay [1] turned out to be 8.4 ± 3.4; in assay [2], 0.5 ± 0.71; in assay [3] it was 7.6 ± 1.7.
Taken in the same sequence, the figures for `Cc1nc(-c2cn3c(n2)-c2ccc(-c4cnn(C(C)(C)C(N)=O)c4)cc2OCC3)n(C(C)C)n1` [Taselisib] were 3.1 ± 4.1, 0.4 ± 0.57 and 4.65 ± 0.49.

The record behind these values is the supplement of paper PMC8024199.
